Values joined by “and” are separate entries in the source; they are usually repeats but may differ in a detail not shown here. Equal values may be shown once. Read-outs that look alike come from different tables or passages of the source.
What was measured:
[1] = molecular target: Human CYP2E1 + P450 Reductase + Cytochrome b5 SUPERSOMES (Homo sapiens, UniProt P05181)
Procedure: (§1) In this study, individual CYP isoforms expressed from human cDNA and P450 reductase cDNA were used (BD SUPERSOMES™ Enzymes, BD Biosciences Discovery Labware, Woburn, Mass.). SUPERSOMES™ are microsomes from baculovirus-infected insect cells containing singly expressed recombinant human CYP enzymes.
(§2) After a 5-minute preincubation, an appropriate amount of the appropriate buffer was added to the reaction mixtures to make the final volume of 0.5 mL. The incubations were continued for 60 minutes.
(§3) All incubation reactions were terminated by adding 0.5 mL methanol, and the samples were transferred to cryovials and stored at −70±10° C. until analysis.

[2] = molecular target: Human CYP2D6*1 + P450 Reductase SUPERSOMES (Homo sapiens, UniProt P10635)
Procedure: as §1, §2, §3

[3] = molecular target: Human CYP2C19 + P450 Reductase + Cytochrome b5 SUPERSOMES (Homo sapiens, UniProt P33261)
Human CYP2C19 + P450 Reductase + Cytochrome b5 SUPERSOMES, sequence (P33261 whole entry): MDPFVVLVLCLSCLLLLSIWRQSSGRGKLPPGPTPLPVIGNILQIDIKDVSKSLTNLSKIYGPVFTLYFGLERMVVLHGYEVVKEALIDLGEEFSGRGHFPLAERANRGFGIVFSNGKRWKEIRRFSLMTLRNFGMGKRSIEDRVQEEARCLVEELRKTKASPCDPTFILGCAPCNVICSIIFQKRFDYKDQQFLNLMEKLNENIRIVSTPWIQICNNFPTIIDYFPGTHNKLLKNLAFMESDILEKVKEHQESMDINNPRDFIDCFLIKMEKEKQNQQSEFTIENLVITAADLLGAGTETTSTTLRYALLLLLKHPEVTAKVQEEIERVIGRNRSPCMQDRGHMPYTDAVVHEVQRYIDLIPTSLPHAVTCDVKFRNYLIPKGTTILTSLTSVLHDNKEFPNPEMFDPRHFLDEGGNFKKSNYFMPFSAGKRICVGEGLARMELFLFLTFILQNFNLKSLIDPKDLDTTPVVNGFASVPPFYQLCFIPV
Procedure: as §1, §2, §3

[4] = molecular target: Human CYP2C9*1 (Arg144) + P450 Reductase + Cytochrome b5 SUPERSOMES (Homo sapiens, UniProt P11712)
Procedure: as §1, §2, §3

[5] = molecular target: T1, Human CYP2A6 + P450 Reductase + Cytochrome b5 SUPERSOMES (Homo sapiens, UniProt P11509)
T1 sequence (P11509 1-494): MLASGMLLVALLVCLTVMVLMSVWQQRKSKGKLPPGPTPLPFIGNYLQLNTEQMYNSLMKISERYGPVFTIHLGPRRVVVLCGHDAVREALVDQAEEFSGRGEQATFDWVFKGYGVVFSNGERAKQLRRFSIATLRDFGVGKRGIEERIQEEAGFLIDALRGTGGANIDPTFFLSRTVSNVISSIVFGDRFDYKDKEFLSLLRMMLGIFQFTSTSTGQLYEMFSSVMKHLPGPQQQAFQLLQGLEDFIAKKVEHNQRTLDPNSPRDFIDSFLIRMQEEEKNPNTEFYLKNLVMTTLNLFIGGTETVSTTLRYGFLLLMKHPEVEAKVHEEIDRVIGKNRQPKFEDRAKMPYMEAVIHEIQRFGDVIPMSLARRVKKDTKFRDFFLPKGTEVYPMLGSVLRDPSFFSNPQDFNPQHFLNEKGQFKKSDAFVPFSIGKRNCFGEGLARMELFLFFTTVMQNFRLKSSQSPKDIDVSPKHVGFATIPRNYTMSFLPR
Procedure: as §1, §2, §3

[6] = 5 μM, 5 pmol enzyme, listed as megestrol acetate
[7] = 5 μM, 20 pmol enzyme, listed as megestrol acetate
[8] = 50 μM, 5 pmol enzyme, listed as megestrol acetate
[9] = 50 μM, 20 pmol enzyme, listed as megestrol acetate

Human CYP2E1 + P450 Reductase + Cytochrome b5 SUPERSOMES, sequence (P05181 whole entry, canonical isoform): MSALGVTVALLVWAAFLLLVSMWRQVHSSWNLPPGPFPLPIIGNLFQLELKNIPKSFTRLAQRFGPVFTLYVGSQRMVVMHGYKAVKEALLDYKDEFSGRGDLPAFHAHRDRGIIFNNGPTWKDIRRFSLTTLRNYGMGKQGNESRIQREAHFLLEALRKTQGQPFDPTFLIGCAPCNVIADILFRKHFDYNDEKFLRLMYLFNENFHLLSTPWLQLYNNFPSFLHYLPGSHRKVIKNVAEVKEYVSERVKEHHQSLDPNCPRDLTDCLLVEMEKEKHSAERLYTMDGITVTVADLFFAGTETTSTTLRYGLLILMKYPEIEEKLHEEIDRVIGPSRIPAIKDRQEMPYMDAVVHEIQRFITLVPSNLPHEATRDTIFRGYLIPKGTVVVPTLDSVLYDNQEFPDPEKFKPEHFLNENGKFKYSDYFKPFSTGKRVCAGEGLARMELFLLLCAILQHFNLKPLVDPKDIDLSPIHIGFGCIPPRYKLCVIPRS

**Q.** Which results are given for `CC(=O)O[C@]1(C(C)=O)CC[C@H]2[C@@H]3C=C(C)C4=CC(=O)CC[C@]4(C)[C@H]3CC[C@@]21C` [Megestrol Acetate, 17 α-acetyloxy-6-methylpregna-4,6-diene-3,20-dione]?
**A.** Individual Raw Data Observed ([1]; 5 μM, 5 pmol enzyme): 2.008 µM and 2.126 µM and 2.034 µM; Percent of Parent Disappearance Individual ([1]; 5 μM, 5 pmol enzyme): 20.4% and 15.8% and 19.4%; Percent of Parent Disappearance Mean ± SD ([1]; 5 μM, 5 pmol enzyme): 18.5 ± 02.46%; Percent of Parent Disappearance Mean ± SD [1, 6]: 18.5±2.46%; Individual Raw Data Observed ([1]; 5 μM, 20 pmol enzyme): 1.473 µM and 1.491 µM and 1.693 µM; Percent of Parent Disappearance Individual ([1]; 5 μM, 20 pmol enzyme): −1.62% and −2.86% and −16.8%; Percent of Parent Disappearance Mean ± SD ([1]; 5 μM, 20 pmol enzyme): −7.09 ± 8.42%; Percent of Parent Disappearance Mean ± SD [1, 7]: 7.09±8.42%; Individual Raw Data Observed ([1]; 50 μM, 5 pmol enzyme): 21.97 µM and 17.04 µM and 17.99 µM; Percent of Parent Disappearance Mean ± SD ([1]; 50 μM, 5 pmol enzyme): −10.5 ± 15.2%; Percent of Parent Disappearance Mean ± SD [1, 8]: 10.5±15.2%; Individual Raw Data Observed ([1]; 50 μM, 20 pmol enzyme): 21.04 µM and 21.41 µM and 21.74 µM; Percent of Parent Disappearance Individual ([1]; 50 μM, 20 pmol enzyme): −1.09% and −2.83% and −4.46%; Percent of Parent Disappearance Mean ± SD ([1]; 50 μM, 20 pmol enzyme): −2.79 ± 1.69%; Percent of Parent Disappearance Mean ± SD [1, 9]: 2.79±1.69%; Individual Raw Data Observed ([2]; 5 μM, 5 pmol enzyme): 1.94 µM and 2.747 µM and 2.056 µM; Percent of Parent Disappearance Mean ± SD ([2]; 5 μM, 5 pmol enzyme): −13.6 ± 022.0%; Percent of Parent Disappearance Mean ± SD [2, 6]: no substrate disappearance was detected; Individual Raw Data Observed ([2]; 5 μM, 20 pmol enzyme): 2.325 µM and 2.386 µM and 2.39 µM; Percent of Parent Disappearance Individual ([2]; 5 μM, 20 pmol enzyme): 4.68% and 2.15% and 2.01%; Percent of Parent Disappearance Mean ± SD ([2]; 5 μM, 20 pmol enzyme): 2.95 ± 1.50%; Percent of Parent Disappearance Mean ± SD [2, 7]: 2.95±2.46%; Individual Raw Data Observed ([2]; 50 μM, 5 pmol enzyme): 18.2 µM and 22.44 µM and 18.03 µM; Percent of Parent Disappearance Individual ([2]; 50 μM, 5 pmol enzyme): −3.00% and −27.0% and −2.03%; Percent of Parent Disappearance Mean ± SD [2, 8]: no substrate disappearance was detected; Individual Raw Data Observed ([2]; 50 μM, 20 pmol enzyme): 12.44 µM and 13.43 µM and 12.62 µM; Percent of Parent Disappearance Individual ([2]; 50 μM, 20 pmol enzyme): 1.88% and −5.91% and 0.449%; Percent of Parent Disappearance Mean ± SD ([2]; 50 μM, 20 pmol enzyme): −1.19 ± 04.14%; Percent of Parent Disappearance Mean ± SD [2, 9]: no substrate disappearance was detected; Individual Raw Data Observed ([3]; 5 μM, 5 pmol enzyme): 2.139 µM and 2.028 µM and 1.969 µM; Percent of Parent Disappearance Individual ([3]; 5 μM, 5 pmol enzyme): −8.12% and −2.56% and 0.430%; Percent of Parent Disappearance Mean ± SD ([3]; 5 μM, 5 pmol enzyme): −3.42 ± 4.34%; Percent of Parent Disappearance Mean ± SD [3, 6]: 3.42±4.34%; Individual Raw Data Observed ([3]; 5 μM, 20 pmol enzyme): 2.14 µM and 2.225 µM and 2.128 µM; Percent of Parent Disappearance Individual ([3]; 5 μM, 20 pmol enzyme): 2.70% and −1.16% and 3.25%; Percent of Parent Disappearance Mean ± SD ([3]; 5 μM, 20 pmol enzyme): 1.60 ± 2.40%; Percent of Parent Disappearance Mean ± SD [3, 7]: 1.60±2.40%; Individual Raw Data Observed ([3]; 50 μM, 5 pmol enzyme): 21.34 µM and 20.03 µM and 19.86 µM; Percent of Parent Disappearance Individual ([3]; 50 μM, 5 pmol enzyme): −9.66% and −2.96% and −2.05%; Percent of Parent Disappearance Mean ± SD ([3]; 50 μM, 5 pmol enzyme): −4.89 ± 4.16%; Percent of Parent Disappearance Mean ± SD [3, 8]: 4.89±4.16%; Individual Raw Data Observed ([3]; 50 μM, 20 pmol enzyme): 15.71 µM and 16.25 µM and 16.51 µM; Percent of Parent Disappearance Individual ([3]; 50 μM, 20 pmol enzyme): −0.956% and −4.44% and −6.11%; Percent of Parent Disappearance Mean ± SD ([3]; 50 μM, 20 pmol enzyme): −3.84 ± 2.63%; Percent of Parent Disappearance Mean ± SD [3, 9]: 3.84±2.63%; Individual Raw Data Observed ([4]; 5 μM, 5 pmol enzyme): 2.098 µM and 2.127 µM and 2.133 µM; Percent of Parent Disappearance Individual ([4]; 5 μM, 5 pmol enzyme): 3.68% and 2.33% and 2.08%; Percent of Parent Disappearance Mean ± SD ([4]; 5 μM, 5 pmol enzyme): 2.70 ± 0.860%; Percent of Parent Disappearance Mean ± SD [4, 6]: 2.70±0.860%; Individual Raw Data Observed ([4]; 5 μM, 20 pmol enzyme): 2.314 µM and 2.379 µM and 2.134 µM; Percent of Parent Disappearance Individual ([4]; 5 μM, 20 pmol enzyme): 9.53% and 6.99% and 16.6%; Percent of Parent Disappearance Mean ± SD ([4]; 5 μM, 20 pmol enzyme): 11.0 ± 4.96%; Percent of Parent Disappearance Mean ± SD [4, 7]: 11.0±4.96%; Individual Raw Data Observed ([4]; 50 μM, 5 pmol enzyme): 20.38 µM and 20.18 µM and 20.9 µM; Percent of Parent Disappearance Individual ([4]; 50 μM, 5 pmol enzyme): 21.5% and 22.2% and 19.5%; Percent of Parent Disappearance Mean ± SD ([4]; 50 μM, 5 pmol enzyme): 21.0 ± 1.43%; Percent of Parent Disappearance Mean ± SD [4, 8]: 21.0±1.43%; Individual Raw Data Observed ([4]; 50 μM, 20 pmol enzyme): 24.33 µM and 21.36 µM and 25.28 µM; Percent of Parent Disappearance Individual ([4]; 50 μM, 20 pmol enzyme): −1.60% and 10.8% and −5.60%; Percent of Parent Disappearance Mean ± SD ([4]; 50 μM, 20 pmol enzyme): 1.19 ± 8.54%; Percent of Parent Disappearance Mean ± SD [4, 9]: 1.19±8.54%; Individual Raw Data Observed ([5]; 5 μM, 5 pmol enzyme): 2.313 µM and 2.35 µM and 2.527 µM; Percent of Parent Disappearance Individual ([5]; 5 μM, 5 pmol enzyme): 3.96% and 2.43% and −4.94%; Percent of Parent Disappearance Mean ± SD ([5]; 5 μM, 5 pmol enzyme): 0.486 ± 4.76%; Percent of Parent Disappearance Mean ± SD [5, 6]: 0.486±4.76%; Individual Raw Data Observed ([5]; 5 μM, 20 pmol enzyme): 2.456 µM and 2.487 µM and 2.684 µM; Percent of Parent Disappearance Individual ([5]; 5 μM, 20 pmol enzyme): 1.36% and 0.129% and −7.81%; Percent of Parent Disappearance Mean ± SD ([5]; 5 μM, 20 pmol enzyme): −2.11 ± 4.98%; Percent of Parent Disappearance Mean ± SD [5, 7]: 2.11±4.98%; Individual Raw Data Observed ([5]; 50 μM, 5 pmol enzyme): 24.75 µM and 23.3 µM and 23.45 µM; Percent of Parent Disappearance Individual ([5]; 50 μM, 5 pmol enzyme): −5.02% and 1.11% and 0.484%; Percent of Parent Disappearance Mean ± SD ([5]; 50 μM, 5 pmol enzyme): −1.14 ± 3.38%; Percent of Parent Disappearance Mean ± SD [5, 8]: 1.14±3.38%; Individual Raw Data Observed ([5]; 50 μM, 20 pmol enzyme): 21.74 µM and 22.68 µM and 23.15 µM; Percent of Parent Disappearance Individual ([5]; 50 μM, 20 pmol enzyme): 4.54% and 0.420% and −1.66%; Percent of Parent Disappearance Mean ± SD ([5]; 50 μM, 20 pmol enzyme): 1.10 ± 3.16%; Percent of Parent Disappearance Mean ± SD [5, 9]: 1.10±3.16%

— US8067042B1 (Mutual Pharmaceutical Company, Inc., priority 2007, dated 2011)
